For orientation: inhibition means the change of the read-out against control, counted positive when it falls. As a reminder, the EC50 is the concentration at which the effect is half-maximal. By CC50 is commonly meant the concentration giving 50% cytotoxicity.

Sequence of CYP2C9 (P11712 whole entry): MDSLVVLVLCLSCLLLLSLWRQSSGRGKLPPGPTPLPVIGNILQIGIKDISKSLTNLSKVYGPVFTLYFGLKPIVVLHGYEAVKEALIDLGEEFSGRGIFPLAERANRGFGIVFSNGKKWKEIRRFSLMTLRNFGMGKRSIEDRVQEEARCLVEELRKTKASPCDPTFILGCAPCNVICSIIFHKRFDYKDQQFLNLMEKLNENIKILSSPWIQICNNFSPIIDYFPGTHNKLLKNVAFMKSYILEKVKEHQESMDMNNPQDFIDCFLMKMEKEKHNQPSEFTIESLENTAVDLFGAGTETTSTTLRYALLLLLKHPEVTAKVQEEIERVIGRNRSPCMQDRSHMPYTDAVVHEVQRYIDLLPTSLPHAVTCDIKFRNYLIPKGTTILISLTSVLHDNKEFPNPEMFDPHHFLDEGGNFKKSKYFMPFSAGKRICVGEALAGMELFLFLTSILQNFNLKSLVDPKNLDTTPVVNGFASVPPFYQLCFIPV
Sequence of hERG (KCNH2) (Q12809 whole entry): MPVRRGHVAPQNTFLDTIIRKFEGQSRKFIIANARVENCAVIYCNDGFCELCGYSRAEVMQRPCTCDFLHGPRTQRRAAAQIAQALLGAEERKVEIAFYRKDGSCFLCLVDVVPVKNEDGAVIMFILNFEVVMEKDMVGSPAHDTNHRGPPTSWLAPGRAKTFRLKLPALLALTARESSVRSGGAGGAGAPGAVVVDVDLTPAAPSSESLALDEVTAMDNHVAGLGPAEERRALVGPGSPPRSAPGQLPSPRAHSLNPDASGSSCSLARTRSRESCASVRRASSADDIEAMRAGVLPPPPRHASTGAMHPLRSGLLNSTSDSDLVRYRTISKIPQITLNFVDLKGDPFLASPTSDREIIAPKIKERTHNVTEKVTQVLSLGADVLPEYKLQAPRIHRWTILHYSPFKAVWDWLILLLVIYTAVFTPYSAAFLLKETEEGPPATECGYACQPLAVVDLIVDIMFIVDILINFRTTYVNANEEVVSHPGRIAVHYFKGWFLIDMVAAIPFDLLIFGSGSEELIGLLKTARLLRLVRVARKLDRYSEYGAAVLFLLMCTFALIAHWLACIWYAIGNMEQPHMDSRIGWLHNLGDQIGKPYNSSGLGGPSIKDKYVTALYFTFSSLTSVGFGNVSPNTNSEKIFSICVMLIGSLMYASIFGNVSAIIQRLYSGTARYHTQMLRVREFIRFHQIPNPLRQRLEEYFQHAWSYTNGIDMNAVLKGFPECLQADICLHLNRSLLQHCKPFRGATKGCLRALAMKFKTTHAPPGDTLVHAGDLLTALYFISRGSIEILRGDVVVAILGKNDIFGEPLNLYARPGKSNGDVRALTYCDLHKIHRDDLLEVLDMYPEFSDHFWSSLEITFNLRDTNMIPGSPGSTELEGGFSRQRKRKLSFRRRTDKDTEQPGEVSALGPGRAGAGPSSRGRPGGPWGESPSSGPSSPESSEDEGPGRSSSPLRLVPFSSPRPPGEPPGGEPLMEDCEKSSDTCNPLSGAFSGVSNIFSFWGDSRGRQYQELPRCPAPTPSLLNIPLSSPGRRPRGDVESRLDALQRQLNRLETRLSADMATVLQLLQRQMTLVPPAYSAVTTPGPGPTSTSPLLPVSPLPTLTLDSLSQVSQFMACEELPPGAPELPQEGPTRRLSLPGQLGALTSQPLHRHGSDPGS

The target of the first series is CYP2C19 (Homo sapiens, UniProt P33261). As to the kind of experiment: Inhibition of human microsomal CYP2C19 expressed in baculovirus infected insect cells at 10 uM using luciferin-H EGE as substrate preincubated with enzyme/substrate mixture for 30 mins followed by further incubation with NADPH for 30 mins by CYP450 luciferase Glo assay relative to control. In kind it is ADME. Conditions: probe luciferin-H EGE; call rule not given here.
Sequence of CYP2C19 (P33261 whole entry): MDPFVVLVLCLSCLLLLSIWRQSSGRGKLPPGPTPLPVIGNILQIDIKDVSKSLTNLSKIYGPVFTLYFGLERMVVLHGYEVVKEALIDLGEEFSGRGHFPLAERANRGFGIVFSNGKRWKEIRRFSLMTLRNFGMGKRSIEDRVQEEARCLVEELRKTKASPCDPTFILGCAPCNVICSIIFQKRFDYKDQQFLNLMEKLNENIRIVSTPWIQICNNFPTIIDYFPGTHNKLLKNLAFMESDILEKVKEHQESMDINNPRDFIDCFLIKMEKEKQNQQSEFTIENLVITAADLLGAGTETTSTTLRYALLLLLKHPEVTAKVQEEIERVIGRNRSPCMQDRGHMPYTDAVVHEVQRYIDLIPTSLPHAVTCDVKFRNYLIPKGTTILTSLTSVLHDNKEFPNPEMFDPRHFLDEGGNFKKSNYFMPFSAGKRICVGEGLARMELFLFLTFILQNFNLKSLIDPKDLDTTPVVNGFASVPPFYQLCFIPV
With `COc1ccc2oc(-c3csc4ccccc34)c(OC(=O)C(C)(C)C)c(=O)c2c1`, the inhibition at 0.5 h, 10 µM was determined as 31.8%.
Still for that read-out and setting: the result for `O=c1c(O)c(-c2ccco2)oc2cc(O)ccc12` reads 65.4%; that for `CCCOc1c(-c2csc3ccccc23)oc2ccc(OC)cc2c1=O`, 31.7%; that for `Cc1ccc2oc(-c3csc4ccccc34)c(O)c(=O)c2c1`, 22.4%.
Turning to `COc1ccc2oc(-c3ccco3)c(O)c(=O)c2c1`, the inhibition at 0.5 h, 10 µM amounted to 54.3%.
Regarding `CCOc1c(-c2csc3ccccc23)oc2ccc(OC)cc2c1=O`, the inhibition at 0.5 h, 10 µM was found to be 54.5%.
As to `O=c1c(O)c(-c2csc3ccccc23)oc2cc(Cl)ccc12`, the inhibition at 0.5 h, 10 µM is -6.35%.

The target in a further series is CYP3A4 (Homo sapiens, UniProt P08684). The experiment in a line: Inhibition of human microsomal CYP3A4 expressed in baculovirus infected insect cells at 10 uM using luciferin-IPA as substrate preincubated with enzyme/substrate mixture for 30 mins followed by further incubation with NADPH for 30 mins by CYP450 luciferase Glo assay relative to control. The class given is ADME. Conditions: probe luciferin-IPA.
Sequence of CYP3A4 (P08684 whole entry): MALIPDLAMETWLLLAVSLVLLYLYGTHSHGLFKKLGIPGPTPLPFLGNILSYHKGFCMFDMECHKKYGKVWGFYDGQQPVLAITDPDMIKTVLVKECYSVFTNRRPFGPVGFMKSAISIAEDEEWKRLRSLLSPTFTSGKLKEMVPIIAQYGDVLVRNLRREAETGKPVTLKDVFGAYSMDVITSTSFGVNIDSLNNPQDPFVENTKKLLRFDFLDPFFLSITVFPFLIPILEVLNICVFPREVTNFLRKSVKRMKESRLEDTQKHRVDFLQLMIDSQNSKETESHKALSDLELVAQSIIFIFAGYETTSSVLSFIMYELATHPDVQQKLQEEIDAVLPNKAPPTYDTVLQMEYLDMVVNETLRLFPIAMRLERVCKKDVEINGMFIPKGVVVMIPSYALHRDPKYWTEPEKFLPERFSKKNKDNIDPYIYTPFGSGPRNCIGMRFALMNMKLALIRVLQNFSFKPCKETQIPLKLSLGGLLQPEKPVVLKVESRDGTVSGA
For `COc1ccc2oc(-c3csc4ccccc34)c(OC(=O)C(C)(C)C)c(=O)c2c1`, the inhibition at 0.5 h, 10 µM amounted to 50.1%.
The same measure, in the same setting: the result for `O=c1c(O)c(-c2ccco2)oc2cc(O)ccc12` reads 14.1%; that for `CCCOc1c(-c2csc3ccccc23)oc2ccc(OC)cc2c1=O`, 48.2%.
With `Cc1ccc2oc(-c3csc4ccccc34)c(O)c(=O)c2c1`, the inhibition at 0.5 h, 10 µM was -19.3%.
The same measure, in the same setting: the result for `COc1ccc2oc(-c3ccco3)c(O)c(=O)c2c1` reads 14.1%; that for `CCOc1c(-c2csc3ccccc23)oc2ccc(OC)cc2c1=O`, 46.9%; that for `O=c1c(O)c(-c2csc3ccccc23)oc2cc(Cl)ccc12`, -5.72%.

The next series relates to Trypanosoma brucei. As to the kind of experiment: Antitrypanosomal activity against Trypanosoma brucei bloodstream form assessed as parasite growth inhibition incubated for 72 hrs by resazurin dye based assay. In kind it is functional, organism-based.
Settings: not given
On the technique in general: The colour change of resazurin is a common sign of viable cells or microbes.
On to `O=c1c(O)c(-c2ccco2)oc2cc(O)ccc12`, for which the EC50 result is given as “Not Active”.
Still for that read-out and setting: the result for `CCCOc1c(-c2csc3ccccc23)oc2ccc(OC)cc2c1=O` reads “Not Active”; that for `COc1ccc2oc(-c3ccco3)c(O)c(=O)c2c1`, “Not Active”; that for `CCOc1c(-c2csc3ccccc23)oc2ccc(OC)cc2c1=O`, “Not Active”.

Staying with this series, now noted: Trypanosoma brucei, 72 h; read-out: EC50.
With `COc1ccc2oc(-c3csc4ccccc34)c(OC(=O)C(C)(C)C)c(=O)c2c1`, the EC50 stood at 3.7 µM.
On the same count and under the same terms, the result for `Cc1ccc2oc(-c3csc4ccccc34)c(O)c(=O)c2c1` reads 2 µM; that for `O=c1c(O)c(-c2csc3ccccc23)oc2cc(Cl)ccc12`, 5.34 µM.

System in another series: not listed separately
As to the kind of experiment: Cytotoxicity against human THP1 cells by MTT assay. In kind it is cell-based, THP-1.
Settings: not given
In general terms: Formazan colour is commonly taken as a measure of viable cells.
As for `COc1ccc2oc(-c3csc4ccccc34)c(OC(=O)C(C)(C)C)c(=O)c2c1`, the CC50 fell in the range of 12.5 to 25 µM.
On the same count and under the same terms, under `O=c1c(O)c(-c2ccco2)oc2cc(O)ccc12` stands greater than 100 µM; under `CCCOc1c(-c2csc3ccccc23)oc2ccc(OC)cc2c1=O`, 12.5 to 25 µM.
Still for that read-out and setting: under `Cc1ccc2oc(-c3csc4ccccc34)c(O)c(=O)c2c1` stands less than 12.5 µM; under `COc1ccc2oc(-c3ccco3)c(O)c(=O)c2c1`, 50 to 100 µM; under `CCOc1c(-c2csc3ccccc23)oc2ccc(OC)cc2c1=O`, 25 to 50 µM.
For the molecule `O=c1c(O)c(-c2csc3ccccc23)oc2cc(Cl)ccc12`, the CC50 is 50 to 100 µM.

The next series deals with 786-0. The experiment in a line: Mitochondrial toxicity in human 786-0 cells at 10 uM incubated with compound for 6 hrs followed by incubation with MitoTracker Red chloromethyl-X-rosamine dye for 45 mins by imaging analysis. In kind it is cell-based. The conditions noted are these: 786-0, 6 h.
For `COc1ccc2oc(-c3csc4ccccc34)c(OC(=O)C(C)(C)C)c(=O)c2c1`, the Activity is given as -47.48%.
Still for that read-out and setting: the result for `O=c1c(O)c(-c2ccco2)oc2cc(O)ccc12` reads -1.18%; that for `CCCOc1c(-c2csc3ccccc23)oc2ccc(OC)cc2c1=O`, 95.63%.
Same read-out and setting: under `Cc1ccc2oc(-c3csc4ccccc34)c(O)c(=O)c2c1` stands -21.98%; under `COc1ccc2oc(-c3ccco3)c(O)c(=O)c2c1`, -0.99%.
For `CCOc1c(-c2csc3ccccc23)oc2ccc(OC)cc2c1=O`, the Activity is listed as -27.16%.
The same measure, in the same setting: the result for `O=c1c(O)c(-c2csc3ccccc23)oc2cc(Cl)ccc12` reads 81.33%.

Another series addresses hERG (KCNH2) (Homo sapiens, UniProt Q12809). The experiment in a line: Inhibition of human ERG at 10 uM incubated for 2 hrs by fluorescence polarization assay relative to control.
Settings: not given
`COc1ccc2oc(-c3csc4ccccc34)c(OC(=O)C(C)(C)C)c(=O)c2c1`: the inhibition at 2 h, 10 µM is -23.8%.
The same measure, in the same setting: the result for `O=c1c(O)c(-c2ccco2)oc2cc(O)ccc12` reads 18.7%; that for `CCCOc1c(-c2csc3ccccc23)oc2ccc(OC)cc2c1=O`, 33.9%.
Same read-out and setting: under `Cc1ccc2oc(-c3csc4ccccc34)c(O)c(=O)c2c1` stands -21.6%; under `COc1ccc2oc(-c3ccco3)c(O)c(=O)c2c1`, -1.31%; under `CCOc1c(-c2csc3ccccc23)oc2ccc(OC)cc2c1=O`, 11.8%.
Still for that read-out and setting: under `O=c1c(O)c(-c2csc3ccccc23)oc2cc(Cl)ccc12` stands 16.3%.

System in another series: not listed separately
The experiment in a line: Cytotoxicity against human A549 cells assessed as cell growth at […] incubated for 48 hrs by Celltiter-Glo luminescence assay relative to control. In kind it is cell-based. The arrangement: dose or concentration left out as unconfirmed. Conditions: read-out: Activity.
For the molecule `COc1ccc2oc(-c3csc4ccccc34)c(OC(=O)C(C)(C)C)c(=O)c2c1`, the viability at 48 h amounted to 133%.
On the same count and under the same terms, the result for `O=c1c(O)c(-c2ccco2)oc2cc(O)ccc12` reads 108%.
The same measure, in the same setting: the result for `CCCOc1c(-c2csc3ccccc23)oc2ccc(OC)cc2c1=O` reads 60.1%; that for `Cc1ccc2oc(-c3csc4ccccc34)c(O)c(=O)c2c1`, 129%; that for `COc1ccc2oc(-c3ccco3)c(O)c(=O)c2c1`, 106%.
On the same count and under the same terms, under `CCOc1c(-c2csc3ccccc23)oc2ccc(OC)cc2c1=O` stands 120%; under `O=c1c(O)c(-c2csc3ccccc23)oc2cc(Cl)ccc12`, -49.6%.

For a further series, the system named is Leishmania infantum. The experiment in a line: Antileishmanial activity against luciferase expressing intracellular amastigote stage of Leishmania infantum infected in human THP1 cells assessed as parasite growth inhibition measured after 48 to 72 hrs by steady-glo luciferase assay.
Settings: not given
The class given is functional, organism-based.
Turning to `COc1ccc2oc(-c3csc4ccccc34)c(OC(=O)C(C)(C)C)c(=O)c2c1`, the EC50 result is reported as “Not Active”.
On the same count and under the same terms, under `CCCOc1c(-c2csc3ccccc23)oc2ccc(OC)cc2c1=O` stands “Not Active”; under `Cc1ccc2oc(-c3csc4ccccc34)c(O)c(=O)c2c1`, “Not Active”.
On the same count and under the same terms, under `CCOc1c(-c2csc3ccccc23)oc2ccc(OC)cc2c1=O` stands “Not Active”.
For the molecule `O=c1c(O)c(-c2csc3ccccc23)oc2cc(Cl)ccc12`, the EC50 result is given as “Not Active”.

The next series has as its target T1, CYP1A2 (Homo sapiens, UniProt P05177).
T1 sequence (P05177 whole entry): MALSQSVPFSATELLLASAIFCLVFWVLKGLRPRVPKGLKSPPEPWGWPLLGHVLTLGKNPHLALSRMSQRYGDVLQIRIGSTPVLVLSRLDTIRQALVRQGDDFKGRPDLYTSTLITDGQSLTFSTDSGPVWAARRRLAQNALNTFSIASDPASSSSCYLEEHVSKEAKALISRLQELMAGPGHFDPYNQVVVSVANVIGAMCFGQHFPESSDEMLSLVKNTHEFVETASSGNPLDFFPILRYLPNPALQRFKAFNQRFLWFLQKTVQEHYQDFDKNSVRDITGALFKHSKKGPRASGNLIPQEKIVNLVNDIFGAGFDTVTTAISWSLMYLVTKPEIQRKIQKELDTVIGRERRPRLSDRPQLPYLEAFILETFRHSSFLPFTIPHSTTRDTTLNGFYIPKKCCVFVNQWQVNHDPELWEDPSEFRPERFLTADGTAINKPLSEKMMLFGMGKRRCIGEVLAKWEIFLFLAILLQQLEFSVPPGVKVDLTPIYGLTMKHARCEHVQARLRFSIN
The experiment in a line: Inhibition of human microsomal CYP1A2 expressed in baculovirus infected insect cells at 10 uM using luciferin-1A2 as substrate preincubated with enzyme/substrate mixture for 30 mins followed by further incubation with NADPH for 30 mins by CYP450 luciferase Glo assay relative to control. The class given is ADME. The conditions noted are these: probe luciferin-1A2.
As to `COc1ccc2oc(-c3csc4ccccc34)c(OC(=O)C(C)(C)C)c(=O)c2c1`, the inhibition at 0.5 h, 10 µM is 51.6%.
The same measure, in the same setting: under `O=c1c(O)c(-c2ccco2)oc2cc(O)ccc12` stands 93.5%; under `CCCOc1c(-c2csc3ccccc23)oc2ccc(OC)cc2c1=O`, 57.2%.
In the case of `Cc1ccc2oc(-c3csc4ccccc34)c(O)c(=O)c2c1`, the inhibition at 0.5 h, 10 µM was determined as 81.3%.
Still for that read-out and setting: under `COc1ccc2oc(-c3ccco3)c(O)c(=O)c2c1` stands 104%; under `CCOc1c(-c2csc3ccccc23)oc2ccc(OC)cc2c1=O`, 92.4%; under `O=c1c(O)c(-c2csc3ccccc23)oc2cc(Cl)ccc12`, 57.5%.

The target of a further series is CYP2D6 (Homo sapiens, UniProt P10635). The experiment in a line: Inhibition of human microsomal CYP2D6 expressed in baculovirus infected insect cells at 10 uM using luciferin-ME as substrate preincubated with enzyme/substrate mixture for 30 mins followed by further incubation with NADPH for 30 mins by CYP450 luciferase Glo assay relative to control. The class given is ADME. Conditions: probe luciferin-ME.
Sequence of CYP2D6 (P10635 whole entry): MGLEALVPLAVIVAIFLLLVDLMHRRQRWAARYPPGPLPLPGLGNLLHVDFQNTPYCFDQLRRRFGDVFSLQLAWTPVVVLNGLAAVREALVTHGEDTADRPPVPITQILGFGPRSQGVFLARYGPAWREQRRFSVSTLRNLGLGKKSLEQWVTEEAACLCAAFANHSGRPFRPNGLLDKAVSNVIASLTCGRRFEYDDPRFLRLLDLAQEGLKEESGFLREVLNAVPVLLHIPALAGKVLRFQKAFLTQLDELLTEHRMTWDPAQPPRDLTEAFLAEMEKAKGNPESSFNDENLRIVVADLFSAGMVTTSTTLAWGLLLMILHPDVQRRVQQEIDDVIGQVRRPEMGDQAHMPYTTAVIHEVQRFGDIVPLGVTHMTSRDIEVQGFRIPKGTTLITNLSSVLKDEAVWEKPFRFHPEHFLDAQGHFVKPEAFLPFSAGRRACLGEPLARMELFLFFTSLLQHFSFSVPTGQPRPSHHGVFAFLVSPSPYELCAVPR
As to `COc1ccc2oc(-c3csc4ccccc34)c(OC(=O)C(C)(C)C)c(=O)c2c1`, the inhibition at 0.5 h, 10 µM was found to be 11.8%.
Consider `O=c1c(O)c(-c2ccco2)oc2cc(O)ccc12`, for which the inhibition at 0.5 h, 10 µM was 28.4%.
Same read-out and setting: the result for `CCCOc1c(-c2csc3ccccc23)oc2ccc(OC)cc2c1=O` reads 66.5%; that for `Cc1ccc2oc(-c3csc4ccccc34)c(O)c(=O)c2c1`, 16%; that for `COc1ccc2oc(-c3ccco3)c(O)c(=O)c2c1`, 50.8%.
Consider `CCOc1c(-c2csc3ccccc23)oc2ccc(OC)cc2c1=O`, for which the inhibition at 0.5 h, 10 µM was found to be 50.2%.
Same read-out and setting: the result for `O=c1c(O)c(-c2csc3ccccc23)oc2cc(Cl)ccc12` reads -3.33%.

A further series has as its target CYP2C9 (Homo sapiens, UniProt P11712). As to the kind of experiment: Inhibition of human microsomal CYP2C9 expressed in baculovirus infected insect cells at 10 uM using luciferin-H as substrate preincubated with enzyme/substrate mixture for 30 mins followed by further incubation with NADPH for 30 mins by CYP450 luciferase Glo assay relative to control. The class given is ADME. Conditions: probe luciferin-H.
Turning to `COc1ccc2oc(-c3csc4ccccc34)c(OC(=O)C(C)(C)C)c(=O)c2c1`, the inhibition at 0.5 h, 10 µM is 33.6%.
`O=c1c(O)c(-c2ccco2)oc2cc(O)ccc12`: the inhibition at 0.5 h, 10 µM came out at 83.7%.
Take `CCCOc1c(-c2csc3ccccc23)oc2ccc(OC)cc2c1=O`: the inhibition at 0.5 h, 10 µM amounted to 19.6%.
As to `Cc1ccc2oc(-c3csc4ccccc34)c(O)c(=O)c2c1`, the inhibition at 0.5 h, 10 µM came to 19.4%.
As for `COc1ccc2oc(-c3ccco3)c(O)c(=O)c2c1`, the inhibition at 0.5 h, 10 µM was 71.3%.
Same read-out and setting: the result for `CCOc1c(-c2csc3ccccc23)oc2ccc(OC)cc2c1=O` reads 14.1%; that for `O=c1c(O)c(-c2csc3ccccc23)oc2cc(Cl)ccc12`, 5.82%.
